Where only a bound is given, the exact number is not on record here.

By IC50 is commonly meant the point on the concentration scale where inhibition reaches its midpoint. Higher therefore signals weaker potency.

In this experiment the target is T1, wild-type FLT3 phosphorylation in Baf3 FLT3 cells (Homo sapiens, UniProt P36888).
T1 construct: host or cells: Baf3 (murine B cell lymphoma line)
T1 sequence (P36888 27-993): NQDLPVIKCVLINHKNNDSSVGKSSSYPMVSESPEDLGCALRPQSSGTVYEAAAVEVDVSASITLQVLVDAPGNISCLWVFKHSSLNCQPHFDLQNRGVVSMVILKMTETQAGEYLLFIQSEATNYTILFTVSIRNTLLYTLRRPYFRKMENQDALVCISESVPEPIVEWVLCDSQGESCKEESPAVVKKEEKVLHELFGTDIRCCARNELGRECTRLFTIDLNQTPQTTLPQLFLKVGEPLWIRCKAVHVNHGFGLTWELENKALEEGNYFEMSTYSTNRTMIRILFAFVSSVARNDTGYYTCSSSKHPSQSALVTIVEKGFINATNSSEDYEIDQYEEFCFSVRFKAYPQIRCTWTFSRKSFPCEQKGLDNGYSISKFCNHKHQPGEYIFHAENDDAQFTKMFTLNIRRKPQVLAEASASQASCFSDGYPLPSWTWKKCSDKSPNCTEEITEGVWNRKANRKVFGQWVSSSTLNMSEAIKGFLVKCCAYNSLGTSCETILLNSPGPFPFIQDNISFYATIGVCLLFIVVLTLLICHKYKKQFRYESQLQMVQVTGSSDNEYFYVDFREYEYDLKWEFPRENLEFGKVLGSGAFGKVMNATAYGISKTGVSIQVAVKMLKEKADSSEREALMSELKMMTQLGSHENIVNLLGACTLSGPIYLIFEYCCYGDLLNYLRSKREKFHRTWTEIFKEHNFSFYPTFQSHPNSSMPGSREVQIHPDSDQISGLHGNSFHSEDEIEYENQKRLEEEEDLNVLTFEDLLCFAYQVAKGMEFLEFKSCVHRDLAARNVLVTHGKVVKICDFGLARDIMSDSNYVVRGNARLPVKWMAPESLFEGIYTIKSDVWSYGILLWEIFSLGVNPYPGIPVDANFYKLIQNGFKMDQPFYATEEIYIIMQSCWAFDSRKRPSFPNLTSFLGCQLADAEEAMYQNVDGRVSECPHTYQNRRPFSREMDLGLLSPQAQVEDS
The experiment in a line: Cell-based FLT3 receptor ELISA. The settings on record: FLT ligand-induced FLT3 phosphorylation. In a few lines: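 Baf3 cells stably expressing wild-type human FLT3 were starved 16 h in 0.5% serum with 0.01 ng/mL IL-3, given compound for 1 h, then stimulated with 100 ng/mL FLT ligand for 10 min at 37 °C. Lysates were captured on anti-FLT3 plates and probed with HRP anti-phosphotyrosine (4G10), read by chemiluminescence. IC50 came from sigmoidal variable-slope fits of triplicates.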
`COc1cc2ncnc(N3CCCCC3COC(=O)Nc3ccc(C(C)C)cc3)c2cc1OC` (stereo not shown) [Compound 33, (4-Isopropyl-phenyl)-carbamic acid 1-(6,7-dimethoxy-quinazolin-4-yl)-piperidin-2-ylmethyl ester] showed an IC50 of 559 nM. As for `COc1cc2ncnc(N3CCC(NC(=O)Cc4ccc(C(C)C)cc4)C3)c2cc1OC` (stereo not shown) [Compound 35, N-[1-(6,7-Dimethoxy-quinazolin-4-yl)-pyrrolidin-3-yl]-2-(4-isopropyl-phenyl)-acetamide], the IC50 is greater than 3000 nM. For `COc1cc2ncnc(N3CCC(N(C)C(=O)Nc4ccc(OC(C)C)cc4)C3)c2cc1OC` (stereo not shown) [Compound 36, 1-[1-(6,7-Dimethoxy-quinazolin-4-yl)-pyrrolidin-3-yl]-3-(4-isopropoxy-phenyl)-1-methyl-urea] the value was 1300 nM; for `COc1cc2ncc(C#N)c(N3CCC(OC(=O)Nc4ccc(C(C)C)cc4)C3)c2cc1OC` (stereo not shown) [Compound 37, (4-Isopropyl-phenyl)-carbamic acid 1-(3-cyano-6,7-dimethoxy-quinolin-4-yl)-pyrrolidin-3-yl ester], 1100 nM.

These data come from US20060281771A1, “SYNERGISTIC MODULATION OF FLT3 KINASE USING AMINOQUINOLINE AND AMINOQUINAZOLINE KINASE MODULATORS” (priority 2005, published 2006).
